Experimental data published in patent publication US12365655B2, “Compounds” (CTXT PTY LTD, priority 2018, dated 2025).

Columns and labels:
TIP60-KAT5 = TIP60-KAT5 (Homo sapiens, UniProt Q92993); assay: Acetyltransferase biochemical assay (AlphaScreen), KAT5
HBO-KAT7 = HBO-KAT7 (Homo sapiens, UniProt O95251); assay: Acetyltransferase biochemical assay (AlphaScreen), KAT7
MOZ-KAT6A = MOZ-KAT6A (Homo sapiens, UniProt Q92794, A567V); assay: Acetyltransferase biochemical assay (AlphaScreen), KAT6A
Chain of MOZ-KAT6A (Q92794 with tags, fused parts or gaps A567V): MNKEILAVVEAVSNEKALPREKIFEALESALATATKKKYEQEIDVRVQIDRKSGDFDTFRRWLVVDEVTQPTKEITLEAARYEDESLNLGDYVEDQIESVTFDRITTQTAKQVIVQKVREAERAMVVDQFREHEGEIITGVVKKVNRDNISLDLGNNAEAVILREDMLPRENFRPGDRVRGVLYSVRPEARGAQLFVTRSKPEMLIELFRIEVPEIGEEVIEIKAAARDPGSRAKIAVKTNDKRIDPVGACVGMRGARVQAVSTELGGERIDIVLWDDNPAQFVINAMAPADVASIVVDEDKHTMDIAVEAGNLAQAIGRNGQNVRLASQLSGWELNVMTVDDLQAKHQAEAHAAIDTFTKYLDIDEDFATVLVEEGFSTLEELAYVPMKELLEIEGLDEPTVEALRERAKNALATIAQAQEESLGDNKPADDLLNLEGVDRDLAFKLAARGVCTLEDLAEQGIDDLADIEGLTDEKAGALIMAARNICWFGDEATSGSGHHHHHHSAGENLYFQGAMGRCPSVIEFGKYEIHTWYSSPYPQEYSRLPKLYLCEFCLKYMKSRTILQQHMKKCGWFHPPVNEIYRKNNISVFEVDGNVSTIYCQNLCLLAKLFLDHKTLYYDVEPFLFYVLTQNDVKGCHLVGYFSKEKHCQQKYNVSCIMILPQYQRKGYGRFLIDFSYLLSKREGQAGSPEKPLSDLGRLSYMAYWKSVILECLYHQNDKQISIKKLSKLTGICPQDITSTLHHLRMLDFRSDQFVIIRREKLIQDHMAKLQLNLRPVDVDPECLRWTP

Chain of TIP60-KAT5 (Q92993 with tags, fused parts or gaps isoform Q92993-2): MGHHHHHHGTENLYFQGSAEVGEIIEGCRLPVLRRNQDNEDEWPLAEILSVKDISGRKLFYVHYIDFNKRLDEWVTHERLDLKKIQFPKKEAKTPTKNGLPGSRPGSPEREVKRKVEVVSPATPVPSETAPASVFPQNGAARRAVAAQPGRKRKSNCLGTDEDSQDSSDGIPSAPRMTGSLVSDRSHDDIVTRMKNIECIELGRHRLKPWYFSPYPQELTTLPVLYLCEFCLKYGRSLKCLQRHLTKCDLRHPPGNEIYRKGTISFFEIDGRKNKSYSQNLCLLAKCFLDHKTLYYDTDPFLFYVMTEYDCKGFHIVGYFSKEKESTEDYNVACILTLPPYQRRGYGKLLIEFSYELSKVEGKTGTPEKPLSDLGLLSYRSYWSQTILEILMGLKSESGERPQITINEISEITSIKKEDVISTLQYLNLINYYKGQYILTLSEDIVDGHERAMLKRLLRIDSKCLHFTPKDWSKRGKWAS
Chain of HBO-KAT7 (O95251 with tags, fused parts or gaps): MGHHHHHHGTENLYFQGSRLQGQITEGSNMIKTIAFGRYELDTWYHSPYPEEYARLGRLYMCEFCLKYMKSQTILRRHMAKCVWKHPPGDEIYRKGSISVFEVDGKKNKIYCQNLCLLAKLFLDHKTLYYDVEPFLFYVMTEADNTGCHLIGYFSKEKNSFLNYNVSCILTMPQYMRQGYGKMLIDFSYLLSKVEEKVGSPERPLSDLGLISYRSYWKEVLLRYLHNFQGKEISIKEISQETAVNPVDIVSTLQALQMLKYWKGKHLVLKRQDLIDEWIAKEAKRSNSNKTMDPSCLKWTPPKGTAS

Row | SMILES | IC50 (TIP60-KAT5) [µM] | IC50 (HBO-KAT7) [µM] | IC50 (MOZ-KAT6A) [µM]
1 | CCc1ccc(OC)c(S(=O)(=O)Nc2noc3ccc(CNC(=O)OC)cc23)c1 [Example 227, Methyl ((3-((5-ethyl-2-methoxyphenyl)sulfonamido)benzo[d]isoxazol-5-yl)methyl) carbamate] | > 125 | 63.1 | 41.5
2 | CCc1ccc(S(=O)(=O)Nc2noc3ccccc23)cc1 [Example 53, N-(benzo[d]isoxazol-3-yl)-4-ethylbenzene sulfonamide] | > 125 | > 125 | 90.7
3 | O=S(=O)(Nc1noc2ccccc12)c1ccc2ccccc2c1 [Example 66, N-(benzo[d]isoxazol-3-yl)naphthalene-2-sulfonamide] | 123 | 114 | 14.6
4 | COc1cccc(OCCO)c1S(=O)(=O)Nc1noc2cccc(OC)c12 [Example 220, 2-(2-Hydroxyethoxy)-6-methoxy-N-(4-methoxybenzo[d]isoxazol-3-yl)benzenesulfonamide] | > 125 | 11 | 3.5
5 | O=S(=O)(Nc1noc2cccc(Cl)c12)c1cccc(S(F)(F)(F)(F)F)c1 [Example 36, N-(4-chlorobenzo [d]isoxazol-3-yl)-3-(pentafluoro-λ^6-sulfanyl)benzene sulfonamide] | 39 | 26.3 | 17.7
6 | COc1ccc(Br)cc1S(=O)(=O)Nc1noc2cccc(Cl)c12 [Example 45] | 34.3 | 6.83 | 2.08
7 | CCc1ccc(OC)c(S(=O)(=O)Nc2noc3c(C4CC4)cccc23)c1 [Example 189] | 32 | 8.02 | 4.35
8 | COC(=O)c1ccccc1S(=O)(=O)Nc1noc2cccc(Cl)c12 [Example 12, methyl 2-(N-(4-chlorobenzo[d]isoxazol-3-yl)sulfamoyl)benzoate] | > 125 | 49.9 | > 125
9 | O=S(=O)(Nc1noc2cccc(Cl)c12)c1ccc2c(c1)OCCCO2 [Example 14, N-(4-chlorobenzo [d]isoxazol-3-yl)-3,4-dihydro-2H-benzo[b][1,4]dioxepine-7-sulfonamide] | > 125 | 15.2 | 45
10 | CCc1ccc(OC)c(S(=O)(=O)Nc2noc3ccc(Cl)cc23)c1 [Example 150] | 50 | 8.04 | 4.97
11 | CCc1ccc(OC)c(S(=O)(=O)Nc2noc3cc(-c4ccccc4)ccc23)c1 [Example 179, 5-Ethyl-2-methoxy-N-(6-phenylbenzo[d]isoxazol-3-yl)benzenesulfonamide] | 32.1 | 13.5 | 2.86
12 | COc1cc(CO)cc(OC)c1S(=O)(=O)Nc1noc2cccc(OC)c12 [Example 209, 4-(Hydroxymethyl)-2,6-dimethoxy-N-(4-methoxybenzo[d]isoxazol-3-yl)benzenesulfonamide] | 28.7 | 1.05 | 2.03
13 | COc1ccc(S(=O)(=O)Nc2noc3cccc(OC)c23)c(OC)c1 [Example 76, 2,4-dimethoxy-N-(4-methoxybenzo [d]isoxazol-3-yl)benzene sulfonamide] | 2.58 | 0.937 | 0.688
14 | COc1ccc(-n2cccn2)cc1S(=O)(=O)Nc1noc2ccccc12 [Example 54, N-(benzo[d]isoxazol-3-yl)-2-methoxy-5-(1H-pyrazol-1-yl)benzene sulfonamide] | > 125 | > 125 | 63
15 | O=S(=O)(Nc1noc2cccc(Cl)c12)c1ccc(OCc2ccccc2)cc1 [Example 9, 4-(benzyloxy)-N-(4-chlorobenzo[d]isoxazol-3-yl)benzenesulfonamide] | 41 | 8.42 | 26.8
16 | COc1cccc(OC)c1S(=O)(=O)Nc1noc2cc(-c3ccccn3)c(C)cc12 [Example 241, 2,6-Dimethoxy-N-(5-methyl-6-(pyridin-2-yl)benzo[d]isoxazol-3-yl)benzenesulfonamide] | 26.3 | 2.51 | 0.157
17 | CCc1ccc(OC)c(S(=O)(=O)Nc2noc3ccc(C(N)=O)cc23)c1 [Example 232, 3-((5-Ethyl-2-methoxyphenyl)sulfonamido)benzo[d]isoxazole-5-carboxamide] | > 125 | > 125 | 46.5
18 | O=S(=O)(Nc1noc2cccc(Cl)c12)c1cc(OCC(F)(F)F)ccc1OCC(F)(F)F [Example 10, N-(4-chlorobenzo [d]isoxazol-3-yl)-2,5-bis(2,2,2-trifluoroethoxy) benzenesulfonamide] | 93.7 | 54.1 | 17.5
19 | CCc1ccc(OC)c(S(=O)(=O)Nc2noc3c(F)cccc23)c1 [Example 152] | 38.9 | 9.87 | 6.28
20 | CCc1ccc(OC)c(S(=O)(=O)Nc2noc3c(C4CCCCC4)cccc23)c1 [Example 190] | 19.9 | 18.5 | 9.73
21 | COCc1ccccc1S(=O)(=O)Nc1noc2cccc(Cl)c12 [Example 1, N-(4-chlorobenzo [d]isoxazol-3-yl)-2-(methoxymethyl) benzenesulfonamide] | > 125 | 53.9 | 91.4
22 | CCc1ccc(OC)c(S(=O)(=O)Nc2noc3cc(Br)ccc23)c1 [Example 138] | 5.11 | 3.68 | 2.89
23 | CCc1ccc(OC)c(S(=O)(=O)Nc2noc3cccc(C4CCCCC4)c23)c1 [Example 201] | 21.8 | 0.773 | 1.48
24 | O=S(=O)(Nc1noc2cccc(Cl)c12)c1cccc(-c2ccccc2)c1 [Example 43, N-(4-chlorobenzo [d]isoxazol-3-yl)-[1,1-biphenyl]-3-sulfonamide] | 23 | 12.9 | 5.97
25 | COc1cccc(OCC2CC2)c1S(=O)(=O)Nc1noc2cccc(OC)c12 [Example 215, 2-(Cyclopropylmethoxy)-6-methoxy-N-(4-methoxybenzo[d]isoxazol-3-yl)benzenesulfonamide] | > 125 | 16.6 | 4.47
26 | COC(=O)c1ccc(OC)c(S(=O)(=O)Nc2noc3ccccc23)c1 [Example 50, methyl 3-(N-(benzo[d]isoxazol-3-yl)sulfamoyl)-4-methoxy benzoate] | > 125 | > 125 | 123

The next lines start with the values.

Row | IC50 (TIP60-KAT5) [µM] | IC50 (HBO-KAT7) [µM] | IC50 (MOZ-KAT6A) [µM] | SMILES
27 | 65.1 | 11.8 | 4.27 | COc1ccc(C(C)C)cc1S(=O)(=O)Nc1noc2cccc(Cl)c12 [Example 41, N-(4-chlorobenzo [d]isoxazol-3-yl)-5-isopropyl-2-methoxybenzene sulfonamide]
28 | 94.9 | 6.28 | 30.2 | Cn1nc2cccc(S(=O)(=O)Nc3noc4cccc(Cl)c34)c2n1 [Example 6, N-(4-chlorobenzo [d]isoxazol-3-yl)-2-methyl-2H-benzo[d][1,2,3]triazole-4-sulfonamide]
29 | 87.7 | 28.3 | 15 | COc1cc(C)c(Cl)cc1S(=O)(=O)Nc1noc2ccccc12 [Example 51, N-(benzo[d]isoxazol-3-yl)-5-chloro-2-methoxy-4-methylbenzene sulfonamide]
30 | > 125 | 28.3 | 34.3 | CCc1ccc(OC)c(S(=O)(=O)Nc2noc3c(-c4ncccn4)cccc23)c1 [Example 136, 5-Ethyl-2-methoxy-N-(7-(pyrimidin-2-yl)benzo[d]isoxazol-3-yl)benzenesulfonamide]
31 | 23.8 | 5.14 | 1.06 | CCc1cc2c(c(S(=O)(=O)Nc3noc4cccc(Cl)c34)c1)OCC2 [Example 181, N-(4-Chlorobenzo[d]isoxazol-3-yl)-5-ethyl-2,3-dihydrobenzofuran-7-sulfonamide]
32 | > 125 | 17.5 | 7.89 | CCc1ccc(OC)c(S(=O)(=O)Nc2noc3cccc(COC)c23)c1 [Example 110, 5-Ethyl-2-methoxy-N-(4-(methoxymethyl)benzo [d]isoxazol-3-yl)benzenesulfonamide]
33 | 69.2 | 0.889 | 1.27 | COc1cc(-c2cc(OC)c3c(NS(=O)(=O)c4c(OC)cccc4OC)noc3c2)ccn1 [Example 249, 2,6-Dimethoxy-N-(4-methoxy-6-(2-methoxypyridin-4-yl)benzo[d]isoxazol-3-yl)benzenesulfonamide]
34 | 63.2 | 8.65 | 24.8 | COc1ccc(S(=O)(=O)Nc2noc3cc(C#N)c(C)cc23)c(OC)c1 [Example 169]
35 | 16.7 | 4.96 | 1.32 | CCc1ccc(OC)c(S(=O)(=O)Nc2noc3cc(C4CC4)ccc23)c1 [Example 195]
36 | 120 | 41.9 | 33.2 | CC(C)(C)c1ccc(S(=O)(=O)Nc2noc3cccc(Cl)c23)cc1 [Example 25, 4-(tert-butyl)-N-(4-chlorobenzo[d]isoxazol-3-yl)benzenesulfonamide]
37 | > 125 | 15.5 | 23 | COc1ccccc1S(=O)(=O)Nc1noc2cc(Br)ccc12 [Example 157]
38 | 90.5 | 11.4 | 6.85 | COc1cc(C)c(C)cc1S(=O)(=O)Nc1noc2cccc(Cl)c12 [Example 33, N-(4-chlorobenzo [d]isoxazol-3-yl)-2-methoxy-4,5-dimethylbenzenesulfonamide]
39 | 4.79 | 1.43 | 0.563 | CCc1ccc(OC)c(S(=O)(=O)Nc2noc3ccc(Br)cc23)c1 [Example 135]
40 | 92.9 | 54.8 | 7.41 | COc1ccc(C(C)(C)C)cc1S(=O)(=O)Nc1noc2ccccc12 [Example 48, N-(benzo[d]isoxazol-3-yl)-5-(tert-butyl)-2-methoxy benzene sulfonamide]
